According to US20090131459A1, “2-Thioxanthine Derivatives Acting as MPO-Inhibitors” (ASTRAZENECA AB, priority 2006, published 2009):

Target: T1, human MPO (Homo sapiens, UniProt P05164)
T1 sequence (P05164 49-745): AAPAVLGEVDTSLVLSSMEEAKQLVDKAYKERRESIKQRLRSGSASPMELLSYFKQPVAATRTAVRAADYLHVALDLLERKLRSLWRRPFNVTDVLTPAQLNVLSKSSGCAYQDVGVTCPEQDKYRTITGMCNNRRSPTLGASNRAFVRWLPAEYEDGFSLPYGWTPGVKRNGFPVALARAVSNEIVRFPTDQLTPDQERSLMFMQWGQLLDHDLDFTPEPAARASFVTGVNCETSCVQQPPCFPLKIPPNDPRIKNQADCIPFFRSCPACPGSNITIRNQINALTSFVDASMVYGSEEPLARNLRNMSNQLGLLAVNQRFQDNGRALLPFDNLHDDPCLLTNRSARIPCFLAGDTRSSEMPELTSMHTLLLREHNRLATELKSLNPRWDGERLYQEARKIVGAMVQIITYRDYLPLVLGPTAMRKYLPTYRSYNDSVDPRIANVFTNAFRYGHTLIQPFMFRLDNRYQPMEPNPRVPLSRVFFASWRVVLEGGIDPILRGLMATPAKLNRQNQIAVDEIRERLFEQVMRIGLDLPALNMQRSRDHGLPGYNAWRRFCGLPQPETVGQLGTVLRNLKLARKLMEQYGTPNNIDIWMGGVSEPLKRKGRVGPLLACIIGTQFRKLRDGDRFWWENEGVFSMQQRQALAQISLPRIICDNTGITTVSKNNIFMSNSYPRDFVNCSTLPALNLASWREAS
Test: MPO inhibition screen (TMB oxidation, with or without added tyrosine)
Format: biochemical
Details: in the presence of tyrosine
Description: Methods for the determination of MPO inhibitory activity are disclosed in patent application WO 02/090575. The pharmacological activity of compounds according to the invention was tested in the following screen in which the compounds were either tested alone or in the presence of added tyrosine:
Assay buffer: 20 mM sodium/potassium phosphate buffer pH 6.5 containing 10 mM taurine and 100 mM NaCl.
Developing reagent: 2 mM 3,3′,5,5′-tetramethylbenzidine (TMB), 200 μM KI, 200 mM acetate buffer pH 5.4 with 20% DMF.
To 10 μl of diluted compounds in assay buffer, 40 μl of human MPO (final concentration […]), with or without 20 μM tyrosine (final concentration, if present, 8 μM), was added and the mixture was incubated for 10 minutes at ambient temperature. Then 50 μl of H2O2 (final concentration 100 μM), or assay buffer alone as a control, were added. After incubation for 10 minutes at ambient temperature, the reaction was stopped by adding 10 μl 0.2 mg/ml of catalase (final concentration 18 μg/ml). The reaction mixture was left for an additional 5 minutes before 100 μl of TMB developing reagent was added. The amount of oxidised 3,3′,5,5′-tetramethylbenzidine formed was then measured after about 5 minutes using absorbance spectroscopy at about […]. IC50 values were then determined using standard procedures.

IC50: 500 nM
SMILES: CCOC(C)Cn1c(=S)[nH]c(=O)c2[nH]cnc21 (racemic) [Example 5, 3-(2-Ethoxy-propyl)-2-thioxanthine]
